Data from patent publication US9957271B2, “Substituted bicyclic aza-heterocycles and analogues as sirtuin modulators” (GlaxoSmithKline, LLC, priority 2012, dated 2018).

Columns and labels:
[1] = biological target: T1, SIRT1 (Homo sapiens, UniProt Q96EB6); assay: Trp mass spectrometry assay of SIRT1 activity; type: biochemical; conditions: Trp peptide substrate; for Trp EC1.5: concentration giving 150% activation of SIRT1; for Emax: percent maximum fold activation, read-out: Trp % Fold Act
T1 sequence (Q96EB6 1-747): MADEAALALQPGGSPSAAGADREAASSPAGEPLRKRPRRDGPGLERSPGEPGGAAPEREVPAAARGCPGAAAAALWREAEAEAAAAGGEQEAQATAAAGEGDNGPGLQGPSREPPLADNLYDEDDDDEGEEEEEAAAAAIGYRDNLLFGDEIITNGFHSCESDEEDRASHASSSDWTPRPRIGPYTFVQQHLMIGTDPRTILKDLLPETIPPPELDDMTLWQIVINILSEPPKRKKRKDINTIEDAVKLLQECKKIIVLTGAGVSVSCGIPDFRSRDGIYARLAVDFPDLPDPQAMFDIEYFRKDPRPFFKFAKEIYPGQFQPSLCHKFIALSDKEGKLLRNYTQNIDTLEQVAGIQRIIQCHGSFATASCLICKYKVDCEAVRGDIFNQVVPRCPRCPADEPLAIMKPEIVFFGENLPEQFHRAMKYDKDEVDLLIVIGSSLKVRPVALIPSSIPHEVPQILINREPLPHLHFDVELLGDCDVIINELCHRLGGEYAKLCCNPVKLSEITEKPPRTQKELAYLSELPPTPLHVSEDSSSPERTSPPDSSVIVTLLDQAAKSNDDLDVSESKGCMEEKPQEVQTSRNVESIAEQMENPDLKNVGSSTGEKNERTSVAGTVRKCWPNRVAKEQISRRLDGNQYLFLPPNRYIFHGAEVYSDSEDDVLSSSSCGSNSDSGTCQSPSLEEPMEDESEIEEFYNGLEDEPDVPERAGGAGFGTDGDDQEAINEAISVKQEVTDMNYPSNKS
Procedure, shortened: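 His-tagged SIRT1 expressed in E. coli BL21(DE3), 10 nM, incubated 25 min at 25° C. with 0.5 μM Ac-RHKK(Ac)W-NH2 peptide and 120 μM βNAD+ in 50 mM HEPES pH 7.5, […], 1 mM DTT, 0.05% BSA; formic acid stop. OAADPR or deacetylated peptide measured by mass spectrometry; EC1.5 and percent maximum activation versus DMSO control.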

[2] = biological target: T1, SIRT1; assay: TAMRA based mass spectrometry assay of SIRT1 activity; type: biochemical; conditions: TAMRA peptide substrate; for TAMRA EC1.5: concentration giving 150% activation of SIRT1; for Emax: percent maximum fold activation, read-out: TAMRA % Fold Act
Procedure, shortened: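 Recombinant N-terminal His-tagged human SIRT1 (10 nM, E. coli) incubated 25 min at 25 °C with 0.5 μM 5TMR-labelled p53-derived acetyl-peptide and 120 μM βNAD+ in Tris-acetate pH 8 buffer with DTT and 0.05% BSA, compound at varying concentrations. Stopped with formic acid; deacetylated peptide or OAADPR measured by mass spectrometry relative to DMSO controls.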

Row | Structure (SMILES) | Trp EC1.5 [1] | Emax [1] | TAMRA EC1.5 [2] | Emax [2]
1 | Cc1nc2ccc(-c3ccccc3OC(F)(F)F)nn2c1C(=O)Nc1ccncn1 [Compound 469] | B (EC1.5 1-25 μM) | ≥ 350% | A (EC1.5<1 μM) | ≥ 350%
2 | Cc1nc2ccc(-c3ccccc3OC(F)(F)F)nn2c1C(=O)Nc1ccc(F)cn1 [Compound 472] | C (EC1.5>25 μM) | < 350% | B (EC1.5 1-25 μM) | < 350%
3 | Cc1nc2c(C)cc(-c3ccccc3C(F)(F)F)nn2c1C(=O)Nc1ccncc1F [Compound 473] | A (EC1.5<1 μM) | ≥ 350% | A (EC1.5<1 μM) | ≥ 350%
4 | Cc1cc(NC(=O)c2c(C)nc3c(C)cc(-c4ccccc4C(F)(F)F)nn23)nc(C)n1 [Compound 475] | B (EC1.5 1-25 μM) | ≥ 350% | A (EC1.5<1 μM) | ≥ 350%
5 | Cc1nc2c(C)cc(-c3ccccc3OC(F)(F)F)nn2c1C(=O)Nc1ccncn1 [Compound 478] | A (EC1.5<1 μM) | ≥ 350% | A (EC1.5<1 μM) | ≥ 350%
6 | Cc1cccc(NC(=O)c2c(C)nc3c(C)cc(-c4ccccc4OC(F)(F)F)nn23)n1 [Compound 480] | B (EC1.5 1-25 μM) | < 350% | A (EC1.5<1 μM) | ≥ 350%
7 | Cc1cc(NC(=O)c2c(C)nc3c(C)cc(-c4ccccc4OC(F)(F)F)nn23)ccn1 [Compound 481] | A (EC1.5<1 μM) | ≥ 350% | A (EC1.5<1 μM) | ≥ 350%
8 | O=C(Nc1ncn2ccc(-c3ccccc3C(F)(F)F)nc12)c1ccncn1 [Compound 484] | C (EC1.5>25 μM) | < 350% | B (EC1.5 1-25 μM) | < 350%
9 | COc1cccc(NC(=O)c2cnn3ccc(-c4ccccc4C(F)(F)F)nc23)n1 [Compound 486] | A (EC1.5<1 μM) | ≥ 350% | A (EC1.5<1 μM) | ≥ 350%
10 | O=C(Nc1cccc(N2CCOCC2)n1)c1cnc2ccc(N3CC[C@H](F)C3)nn12 [Compound 487, (S)-6-(3-fluoropyrrolidin-1-yl)-N-(6-morpholinopyridin-2-yl)imidazo[1,2-b]pyridazine-3-carboxamide] | A (EC1.5<1 μM) | ≥ 350% | B (EC1.5 1-25 μM) | < 350%
11 | O=C(Nc1cccc(N2CCOCC2)n1)c1cnc2ccc(N3CCC(F)(F)C3)nn12 [Compound 489] | A (EC1.5<1 μM) | ≥ 350% | B (EC1.5 1-25 μM) | < 350%
12 | Cc1cc(C)nc(NC(=O)c2cnc3ccc(N4CC[C@H](F)C4)nn23)c1 [Compound 490] | B (EC1.5 1-25 μM) | < 350% | B (EC1.5 1-25 μM) | ≥ 350%
13 | Cc1nc2ccc(-c3ccccc3OC(F)(F)F)nn2c1C(=O)Nc1ccccn1 [Compound 496] | A (EC1.5<1 μM) | < 350% | A (EC1.5<1 μM) | ≥ 350%
14 | Cc1nc2ccc(-c3ccccc3C(F)(F)F)nn2c1C(=O)Nc1ccncc1 [Compound 499] | A (EC1.5<1 μM) | ≥ 350% | A (EC1.5<1 μM) | ≥ 350%
15 | O=C(Nc1cccnn1)c1cnn2ccc(-c3ccccc3C(F)(F)F)nc12 [Compound 505] | B (EC1.5 1-25 μM) | < 350% | A (EC1.5<1 μM) | ≥ 350%
16 | Cc1cnc(NC(=O)c2cnn3ccc(-c4ccccc4C(F)(F)F)nc23)s1 [Compound 507] | B (EC1.5 1-25 μM) | < 350% | A (EC1.5<1 μM) | ≥ 350%
17 | Cc1csc(NC(=O)c2cnn3ccc(-c4ccccc4C(F)(F)F)nc23)n1 [Compound 508] | A (EC1.5<1 μM) | ≥ 350% | A (EC1.5<1 μM) | ≥ 350%
18 | CN(C)[C@@H]1CCN(c2ccc3ncc(C(=O)Nc4cccc(N5CCOCC5)n4)n3n2)C1 [Compound 511] | B (EC1.5 1-25 μM) | < 350% | B (EC1.5 1-25 μM) | < 350%
19 | Cc1cc(C)nc(NC(=O)c2cnc3ccc(N4CC[C@@H](N(C)C)C4)nn23)c1 [Compound 513] | C (EC1.5>25 μM) | < 350% | B (EC1.5 1-25 μM) | < 350%
20 | Cc1cc(-c2ccccc2C(F)(F)F)nn2c(C(=O)Nc3cccnn3)cnc12 [Compound 514] | A (EC1.5<1 μM) | ≥ 350% | A (EC1.5<1 μM) | ≥ 350%
21 | Cc1cc(C)nc(NC(=O)c2cnc3c(C)cc(-c4ccccc4C(F)(F)F)nn23)c1 [Compound 516] | B (EC1.5 1-25 μM) | < 350% | A (EC1.5<1 μM) | ≥ 350%
22 | O=C(Nc1ccncc1F)c1cnn2ccc(-c3ccccc3C(F)(F)F)nc12 [Compound 517] | B (EC1.5 1-25 μM) | < 350% | B (EC1.5 1-25 μM) | ≥ 350%
23 | O=C(Nc1ccc(F)cn1)c1cnn2ccc(-c3ccccc3C(F)(F)F)nc12 [Compound 518] | B (EC1.5 1-25 μM) | < 350% | A (EC1.5<1 μM) | ≥ 350%
24 | COc1cccc(C(=O)Nc2cnn3ccc(-c4ccccc4C(F)(F)F)nc23)n1 [Compound 521] | A (EC1.5<1 μM) | < 350% | A (EC1.5<1 μM) | ≥ 350%
25 | Cc1ccnc(C(=O)Nc2cnn3ccc(-c4ccccc4C(F)(F)F)nc23)c1 [Compound 523] | C (EC1.5>25 μM) | < 350% | A (EC1.5<1 μM) | ≥ 350%
26 | Cc1cc(C)nc(C(=O)Nc2cnn3ccc(-c4ccccc4C(F)(F)F)nc23)c1 [Compound 524] | C (EC1.5>25 μM) | < 350% | A (EC1.5<1 μM) | ≥ 350%
27 | Cc1nc(C(=O)Nc2cnn3ccc(-c4ccccc4C(F)(F)F)nc23)cs1 [Compound 527] | B (EC1.5 1-25 μM) | < 350% | A (EC1.5<1 μM) | ≥ 350%
28 | O=C(Nc1ccccn1)c1cnn2ccc(-c3ccccc3OC(F)(F)F)nc12 [Compound 529] | A (EC1.5<1 μM) | < 350% | A (EC1.5<1 μM) | ≥ 350%
29 | O=C(Nc1cccnc1)c1cnn2ccc(-c3ccccc3OC(F)(F)F)nc12 [Compound 530] | A (EC1.5<1 μM) | ≥ 350% | A (EC1.5<1 μM) | ≥ 350%
